Measurements reported in patent US11865157B2, “Compositions and methods of targeting cancer stem cells” (University of Houston System, priority 2016, dated 2024).
Numbered stars: 1 amine (or outer) side, 2 acyl side, 3 side chain; on linkers, the order of the positions; unused ones are H or OH. Square brackets hold non-standard residues; d marks the D form. Peptide text beside a SMILES is read from it. ξ: configuration not given here. Gly(N-piperonyl) = O=C(O)CNCc1ccc2c(c1)OCO2; X1 = CC(c1ccccc1)N(CC(=O)[*:2])[*:1]; Nlys = NCCCCNCC(=O)O; ξK = NCCCCC(N)C(=O)O; ξM = CSCCC(N)C(=O)O; Nme = COCCNCC(=O)O

Tests used:
[1] = test system: ALDH+ H358 CSCs; assay: On-bead binding of sorted ALDH+ and ALDH− H358 cells to PCS2-carrying beads; type: cell-based
Experimental: (§1) On-bead binding assay: 50 mg of peptoid-carrying tentagel beads or 1.3×10^6 of peptoid-carrying magnetic beads were equilibrated in 2 mL RPMI containing 5% FBS and 3% BSA (Sigma) for 1 hour by shaking. The beads can then be equilibrated with 5×10^6 of each cancer cell type listed above in 2 mL RPMI containing 5% FBS and 1% BSA at room temperature for 15-60 minutes for binding. The cell-bound beads are then pulled down with a magnet and washed with RPMI to cleanly harvest bound cells. Unbound cells were collected separately for further confirmations.
To confirm the binding specificity of PCS2 to CSCs, sorted ALDH+ H358 CSCs (red stained) and ALDH− H358 cells (green stained) were exposed to PCS2-carrying beads. […] The same assay was repeated after allowing these CSC population to grow for 2 weeks, where by then the CSC percentage in the ALDH+ sorted population became low, the number of cells bound was very low (FIG. 4E), indicating PCS2 recognizes a unique target specific for CSCs, but not other cancer cells.

[2] = test system: H358 cells; assay: Magnetic-bead pull-down assay; type: cell-based
Experimental: as §1
To confirm the binding specificity of PCS2 to CSCs, CSCs isolated from H358 cells and normal mesenchymal stem cells (MSCs) were exposed to PCS2-carrying beads as described in Example 3, and then separated by magnet into peptoid-bound and peptoid-unbound fractions (FIG. 19A). […] RNA from both bound and unbound fractions was harvested and analyzed by RT-qPCR to determine the relative expression of several known CSC biomarkers in each fraction was assessed, including expression of ALDH1A3 (FIG. 19B), CD133 (FIG. 19C), CD44 (FIG. 19D), and SOX2 (FIG. 19E). […]
To further evaluate this plectin-CSC connection, it was confirmed that CSCs can be isolated through cell surface plectin via a PCS2-independent approach. […] Next the mRNA levels of two known CSC biomarkers was analyzed on these cell groups by RT-QPCR, along with plectin (PLEC). […]

[3] = target: T1, plectin (Homo sapiens, UniProt Q15149); assay: Magnetic-bead binding assay with plectin antibody competition or plectin siRNA knockdown
T1 construct: endogenous in cells; host or cells: H358, H1693, H1975, H1993 cells
Experimental: Unsorted H358 cells were plated on a 6-well plate and grown to 80% confluence. For each well, 9 μL of Lipofectamine RNAiMAX (Thermo Fisher) was mixed with 3 μL of 10 μM siRNA, either silencer select s10644 plectin or silencer select negative control 1 (Thermo Fisher), in serum-free RPMI and incubated for 5 minutes. The mixture was then added to the well and incubated for 1 to 4 days before testing. Magnetic binding assays were performed on harvested cells as described above for binding evaluation.
Plectin expression was directed tested on PCS2-bound cells from H358, HCC4017, H460, H1299, H2073, H1693, H1993, H1975 cells by RT-QPCR (FIG. 22A). […] To determine if PCS2 and the plectin antibody compete for binding, the magnetic-bead binding assay was repeated in the presence of the plectin antibody. […] Since previous reports have shown cells to be sufficiently stable for further assays with plectin knock-down, plectin knockdown was conducted in H358, H1693, H1975 and H1993 cells using siRNA using the magnetic-bead binding assay described above. […] From these observations, it was concluded that plectin is the cell-surface marker that PCS2 is targeting.

T1 sequence (Q15149 whole entry): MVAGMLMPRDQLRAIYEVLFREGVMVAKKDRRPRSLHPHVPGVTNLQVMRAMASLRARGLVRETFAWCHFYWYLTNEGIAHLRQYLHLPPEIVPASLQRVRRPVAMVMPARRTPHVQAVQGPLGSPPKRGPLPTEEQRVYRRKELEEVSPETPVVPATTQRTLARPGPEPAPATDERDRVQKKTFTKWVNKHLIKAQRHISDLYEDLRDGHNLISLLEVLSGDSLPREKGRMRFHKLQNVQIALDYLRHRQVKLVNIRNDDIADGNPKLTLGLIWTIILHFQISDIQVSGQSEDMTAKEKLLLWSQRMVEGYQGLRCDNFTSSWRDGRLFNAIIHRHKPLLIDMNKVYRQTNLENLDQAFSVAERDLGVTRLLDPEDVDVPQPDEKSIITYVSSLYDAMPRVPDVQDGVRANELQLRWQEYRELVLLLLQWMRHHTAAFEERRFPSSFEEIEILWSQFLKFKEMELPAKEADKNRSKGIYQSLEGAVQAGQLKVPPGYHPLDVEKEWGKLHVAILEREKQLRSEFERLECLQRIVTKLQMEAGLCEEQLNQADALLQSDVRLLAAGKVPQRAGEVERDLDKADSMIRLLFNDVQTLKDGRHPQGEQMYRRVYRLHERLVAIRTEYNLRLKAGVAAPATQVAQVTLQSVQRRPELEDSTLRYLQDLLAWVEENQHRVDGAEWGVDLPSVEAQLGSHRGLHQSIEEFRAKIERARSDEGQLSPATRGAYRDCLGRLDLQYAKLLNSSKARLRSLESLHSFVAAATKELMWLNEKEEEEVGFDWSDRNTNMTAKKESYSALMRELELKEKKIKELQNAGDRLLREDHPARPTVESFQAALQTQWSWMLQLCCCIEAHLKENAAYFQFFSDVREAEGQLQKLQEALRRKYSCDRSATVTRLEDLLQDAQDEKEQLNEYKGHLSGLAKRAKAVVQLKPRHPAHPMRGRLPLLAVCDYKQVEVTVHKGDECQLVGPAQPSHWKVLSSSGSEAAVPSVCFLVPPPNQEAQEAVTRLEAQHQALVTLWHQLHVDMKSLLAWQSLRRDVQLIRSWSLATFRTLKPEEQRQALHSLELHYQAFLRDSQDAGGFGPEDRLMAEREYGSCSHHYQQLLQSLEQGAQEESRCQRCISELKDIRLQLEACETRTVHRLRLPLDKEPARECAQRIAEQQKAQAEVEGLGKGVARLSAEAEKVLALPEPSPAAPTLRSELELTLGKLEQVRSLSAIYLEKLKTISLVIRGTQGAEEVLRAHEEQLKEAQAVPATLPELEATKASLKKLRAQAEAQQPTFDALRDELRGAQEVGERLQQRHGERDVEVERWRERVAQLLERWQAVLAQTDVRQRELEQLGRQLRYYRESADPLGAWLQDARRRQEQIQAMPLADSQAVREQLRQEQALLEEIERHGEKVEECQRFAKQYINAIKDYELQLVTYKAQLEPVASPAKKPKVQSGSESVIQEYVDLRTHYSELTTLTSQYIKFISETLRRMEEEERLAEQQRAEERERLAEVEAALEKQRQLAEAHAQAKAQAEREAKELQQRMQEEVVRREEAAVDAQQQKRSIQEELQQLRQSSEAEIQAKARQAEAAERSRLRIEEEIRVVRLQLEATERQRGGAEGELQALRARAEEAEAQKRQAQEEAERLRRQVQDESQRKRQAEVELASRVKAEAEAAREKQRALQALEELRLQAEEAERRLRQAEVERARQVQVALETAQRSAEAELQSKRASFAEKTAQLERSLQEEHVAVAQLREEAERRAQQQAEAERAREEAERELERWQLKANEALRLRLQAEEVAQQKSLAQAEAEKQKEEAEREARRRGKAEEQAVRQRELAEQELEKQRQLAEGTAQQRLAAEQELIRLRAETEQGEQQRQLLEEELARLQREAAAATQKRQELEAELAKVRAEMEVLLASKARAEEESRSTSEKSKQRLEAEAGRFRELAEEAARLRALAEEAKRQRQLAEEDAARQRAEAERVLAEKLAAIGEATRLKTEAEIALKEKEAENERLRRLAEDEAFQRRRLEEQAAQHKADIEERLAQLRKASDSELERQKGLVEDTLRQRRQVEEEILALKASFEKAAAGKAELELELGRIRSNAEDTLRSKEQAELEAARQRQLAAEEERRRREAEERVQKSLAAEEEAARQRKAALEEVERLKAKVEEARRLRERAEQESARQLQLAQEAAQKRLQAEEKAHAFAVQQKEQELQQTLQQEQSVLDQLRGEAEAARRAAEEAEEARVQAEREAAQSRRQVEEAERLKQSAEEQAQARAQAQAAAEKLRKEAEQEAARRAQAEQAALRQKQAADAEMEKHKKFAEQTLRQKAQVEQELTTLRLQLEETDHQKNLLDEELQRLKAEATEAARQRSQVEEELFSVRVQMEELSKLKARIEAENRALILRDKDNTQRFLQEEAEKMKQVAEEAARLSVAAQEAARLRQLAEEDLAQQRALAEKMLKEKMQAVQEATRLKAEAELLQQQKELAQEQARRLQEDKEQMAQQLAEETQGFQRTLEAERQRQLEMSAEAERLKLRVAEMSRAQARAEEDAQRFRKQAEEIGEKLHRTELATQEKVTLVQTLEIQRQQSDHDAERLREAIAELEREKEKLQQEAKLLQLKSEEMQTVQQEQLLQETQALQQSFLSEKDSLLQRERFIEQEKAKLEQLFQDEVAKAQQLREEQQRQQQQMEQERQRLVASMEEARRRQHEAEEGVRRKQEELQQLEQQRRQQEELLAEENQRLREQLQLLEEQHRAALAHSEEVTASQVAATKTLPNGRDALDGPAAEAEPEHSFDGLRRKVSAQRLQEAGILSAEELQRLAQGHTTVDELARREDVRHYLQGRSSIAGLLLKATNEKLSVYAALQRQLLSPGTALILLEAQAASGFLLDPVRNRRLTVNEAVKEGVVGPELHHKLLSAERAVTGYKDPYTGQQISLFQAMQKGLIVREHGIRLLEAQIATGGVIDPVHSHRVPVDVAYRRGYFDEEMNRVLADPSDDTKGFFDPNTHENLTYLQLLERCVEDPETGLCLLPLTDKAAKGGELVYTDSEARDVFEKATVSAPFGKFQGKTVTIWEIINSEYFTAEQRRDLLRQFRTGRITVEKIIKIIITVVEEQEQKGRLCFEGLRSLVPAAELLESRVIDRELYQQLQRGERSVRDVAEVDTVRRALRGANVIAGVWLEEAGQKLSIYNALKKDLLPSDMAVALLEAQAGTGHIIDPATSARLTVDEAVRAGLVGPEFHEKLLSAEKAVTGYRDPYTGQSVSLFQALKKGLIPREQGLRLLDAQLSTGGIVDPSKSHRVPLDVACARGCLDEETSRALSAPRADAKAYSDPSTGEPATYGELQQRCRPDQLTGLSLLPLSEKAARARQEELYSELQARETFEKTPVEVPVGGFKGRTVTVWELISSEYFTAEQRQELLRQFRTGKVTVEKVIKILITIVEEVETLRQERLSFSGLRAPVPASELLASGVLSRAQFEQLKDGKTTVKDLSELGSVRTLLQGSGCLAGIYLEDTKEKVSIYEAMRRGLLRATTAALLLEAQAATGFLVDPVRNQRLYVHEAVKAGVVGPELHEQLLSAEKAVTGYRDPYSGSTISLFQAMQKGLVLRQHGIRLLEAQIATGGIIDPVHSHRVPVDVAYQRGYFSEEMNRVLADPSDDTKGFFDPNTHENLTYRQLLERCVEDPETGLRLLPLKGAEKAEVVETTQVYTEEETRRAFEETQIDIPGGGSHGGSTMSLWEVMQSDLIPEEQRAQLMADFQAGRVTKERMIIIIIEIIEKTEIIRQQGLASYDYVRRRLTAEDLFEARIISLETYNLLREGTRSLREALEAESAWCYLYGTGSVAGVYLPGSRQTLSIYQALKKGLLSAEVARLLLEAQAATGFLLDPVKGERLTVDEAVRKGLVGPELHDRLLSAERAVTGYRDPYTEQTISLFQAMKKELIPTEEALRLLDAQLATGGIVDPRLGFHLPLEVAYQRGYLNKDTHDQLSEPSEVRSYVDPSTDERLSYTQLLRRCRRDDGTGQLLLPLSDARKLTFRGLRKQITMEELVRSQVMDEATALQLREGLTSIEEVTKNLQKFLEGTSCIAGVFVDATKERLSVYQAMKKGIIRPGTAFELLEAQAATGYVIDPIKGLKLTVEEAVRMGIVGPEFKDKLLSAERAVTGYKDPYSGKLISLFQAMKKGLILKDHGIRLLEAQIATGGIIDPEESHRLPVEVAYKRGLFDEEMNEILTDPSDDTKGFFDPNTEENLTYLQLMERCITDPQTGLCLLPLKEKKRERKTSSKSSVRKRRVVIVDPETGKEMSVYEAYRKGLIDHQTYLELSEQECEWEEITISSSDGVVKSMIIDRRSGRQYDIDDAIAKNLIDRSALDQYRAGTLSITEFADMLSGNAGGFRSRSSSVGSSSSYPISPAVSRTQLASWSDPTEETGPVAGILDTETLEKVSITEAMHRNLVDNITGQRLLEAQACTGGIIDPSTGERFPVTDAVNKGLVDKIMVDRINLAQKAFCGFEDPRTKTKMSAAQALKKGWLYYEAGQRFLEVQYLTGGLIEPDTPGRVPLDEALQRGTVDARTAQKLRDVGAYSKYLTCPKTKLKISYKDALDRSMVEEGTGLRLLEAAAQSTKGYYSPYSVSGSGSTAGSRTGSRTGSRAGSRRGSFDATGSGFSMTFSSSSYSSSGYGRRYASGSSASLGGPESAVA

COCCNCC(=O)N(CCCCN)CC(=O)N(CC(=O)N(CC(=O)N(CCCCN)CC(=O)NC(CCCCN)C(=O)N[C@H](CCCCN)C(=O)NC(CCSC)C(N)=O)C(C)c1ccccc1)Cc1ccc2c(c1)OCO2 (stereo partly drawn) [PCS2] (H-[Nme][Nlys][Gly(N-piperonyl)][X1][Nlys][ξK][dK][ξM]-NH2)
number of cells bound to PCS2-beads ([1]; ALDH+ sorted population after 2 weeks of growth): very low | binding of PCS2-beads to sorted ALDH+ (red) vs ALDH− (green) H358 cells ([1]; freshly sorted cells): only bound significantly to the red CSCs | binding of PCS2 beads to CSCs from H358 vs normal MSCs ([2]; bound vs unbound fractions): bound significantly higher on CSCs from H358 than normal MSCs | cells isolated (pull-down) from H358 ([2]; coated magnetic beads): 28-38% | bound cells after plectin siRNA knockdown vs control siRNA ([3]; H358, H1693, H1975 and H1993 cells): dramatic decrease | cells bound to PCS2-magnetic-beads in the presence of plectin antibody ([3]; all cell lines tested): fewer cells bound
